What is called Ki is the dissociation constant of the complex between target and ligand, obtained from inhibition or displacement. Low values mean tighter binding, high ones weaker binding. For orientation: IC50 means the point on the concentration scale where inhibition reaches its midpoint. The term CLint scaled denotes the capacity of the preparation to metabolise the compound, expressed as a volume cleared per time. High values mean faster metabolism, low ones greater metabolic stability. Usually half-life stands for how long it takes for the measured level to halve. For orientation: clearance means a measure of how efficiently the substance is removed, as volume per time. For orientation: bioavailability means the share of a dose that reaches the circulation, judged against a reference dose that is usually intravenous. Lower therefore signals little systemic uptake. A word on the inhibition: it is the share of the control response that was lost under treatment. High values mean a strong effect, low ones a weak effect.

In series [1] the target is 11-beta-hydroxysteroid dehydrogenase 1 (Rattus norvegicus, UniProt P16232). In words: Inhibitory activity against rat 11beta-HSD1.
Series [2] has as its target T1, 11-beta-hydroxysteroid dehydrogenase type 2 (Rattus norvegicus, UniProt P50233).
T1 sequence (P50233 whole entry): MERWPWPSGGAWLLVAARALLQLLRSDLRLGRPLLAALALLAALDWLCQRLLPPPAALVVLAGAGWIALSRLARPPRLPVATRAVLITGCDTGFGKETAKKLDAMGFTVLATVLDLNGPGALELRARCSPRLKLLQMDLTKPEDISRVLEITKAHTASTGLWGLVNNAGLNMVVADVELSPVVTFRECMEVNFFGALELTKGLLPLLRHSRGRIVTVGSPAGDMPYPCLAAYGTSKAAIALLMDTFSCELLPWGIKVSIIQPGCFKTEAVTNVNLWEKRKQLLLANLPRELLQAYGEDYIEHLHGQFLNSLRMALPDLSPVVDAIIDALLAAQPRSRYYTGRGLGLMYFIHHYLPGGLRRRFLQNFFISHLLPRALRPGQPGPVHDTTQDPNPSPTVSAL
In words: Inhibitory activity against rat 11beta-HSD2.

A short description of series [3]: Intrinsic clearance in rat liver microsomes at 1 uM. The format is ADME, Microsome. In general terms: Liver microsomes are vesicles of endoplasmic reticulum, rich in cytochrome P450 enzymes.
A short description of series [4]: Half life in rat at 5 mg/kg, iv. The format is ADME, organism-based. Details: dose 5 mg/kg, route intravenous. The following applies: in vivo.
Series [5] is described as follows: Volume of distribution in rat at 5 mg/kg, iv. The format is ADME, organism-based. Details: dose 5 mg/kg, route intravenous. To be noted: in vivo, read-out: Vss.
A short description of series [6]: Plasma clearance in rat at 5 mg/kg, iv. The format is ADME, organism-based. Details: dose 5 mg/kg, route intravenous.
A short description of series [7]: Half life in rat at 5 mg/kg, po. The class given is ADME, organism-based. Details: dose 5 mg/kg, route oral. To be noted: in vivo.
In the next series the test system is Rattus norvegicus. Put plainly: Area under the curve in rat at 5 mg/kg, po. The class given is ADME, organism-based. Details: dose 5 mg/kg, route oral. The following applies: in vivo.
Series [8] in a line: Oral bioavailability in rat at 5 mg/kg, po. The class given is ADME, organism-based. To be noted: in vivo.
The target of series [9] is T2, 11-beta-hydroxysteroid dehydrogenase 1 (Homo sapiens, UniProt P28845). In words: Inhibition of human 11beta-HSD1 expressed in Escherichia coli by SPA.
Series [10] concerns the target 11-beta-hydroxysteroid dehydrogenase 1 (Mus musculus, UniProt P50172). Put plainly: Inhibition of mouse 11beta-HSD1 expressed in Escherichia coli by SPA.
The target of series [11] is T2, 11-beta-hydroxysteroid dehydrogenase 1. In words: Inhibition of human 11beta-HSD1 expressed in HEK293 cells by FPIA. The class given is cell-based.
Series [12] is described as follows: Intrinsic clearance in human liver microsomes at 1 uM. The format is ADME, Microsome.
Series [13] in a line: Intrinsic clearance in mouse liver microsomes at 1 uM. The format is ADME, Microsome.
In series [14] the target is T3, 11-beta-hydroxysteroid dehydrogenase type 2 (Homo sapiens, UniProt P80365).
T3 sequence (P80365 whole entry): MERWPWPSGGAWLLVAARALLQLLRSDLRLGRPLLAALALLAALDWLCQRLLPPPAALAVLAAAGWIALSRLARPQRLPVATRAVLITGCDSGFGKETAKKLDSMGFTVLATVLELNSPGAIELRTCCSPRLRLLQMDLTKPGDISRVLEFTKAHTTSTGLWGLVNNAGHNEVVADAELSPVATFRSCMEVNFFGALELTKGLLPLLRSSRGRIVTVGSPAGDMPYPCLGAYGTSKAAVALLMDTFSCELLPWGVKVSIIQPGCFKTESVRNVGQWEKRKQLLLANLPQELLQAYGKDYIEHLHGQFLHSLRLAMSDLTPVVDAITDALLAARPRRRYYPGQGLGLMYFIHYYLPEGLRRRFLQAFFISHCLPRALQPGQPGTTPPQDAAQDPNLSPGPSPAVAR
Put plainly: Inhibitory activity against human 11beta-HSD2 by SPA.

For series [15], the target named is T4, 11-beta-hydroxysteroid dehydrogenase type 2 (Mus musculus, UniProt P51661).
T4 sequence (P51661 whole entry): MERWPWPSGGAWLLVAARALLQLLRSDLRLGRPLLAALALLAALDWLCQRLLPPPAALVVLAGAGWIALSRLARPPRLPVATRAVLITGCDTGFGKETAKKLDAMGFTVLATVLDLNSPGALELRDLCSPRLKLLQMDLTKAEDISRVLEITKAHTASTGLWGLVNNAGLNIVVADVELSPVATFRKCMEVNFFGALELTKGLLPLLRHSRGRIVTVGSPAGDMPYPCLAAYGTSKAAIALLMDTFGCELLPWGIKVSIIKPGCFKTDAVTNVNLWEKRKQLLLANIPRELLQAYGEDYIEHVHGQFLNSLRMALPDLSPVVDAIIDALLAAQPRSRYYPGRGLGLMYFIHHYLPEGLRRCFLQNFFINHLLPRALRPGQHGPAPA
In words: Inhibitory activity against mouse 11beta-HSD2 by SPA.

For series [16], the target named is 11-beta-hydroxysteroid dehydrogenase 1 (Mus musculus) (UniProt P50172). In words: Inhibition of mouse 11beta-HSD1 in DIO mouse brain at 30 mg/kg, po after 1 hr. The format is organism-based. Details: dose 30 mg/kg.
For series [17] the target is unchanged. Put plainly: Inhibition of mouse 11beta-HSD1 in DIO mouse brain at 30 mg/kg, po after 7 hrs. The format is organism-based. Details: dose 30 mg/kg.
The nature of series [18]: Half life in mouse at 10 mg/kg, iv. The format is ADME, organism-based. The following applies: in vivo. Details: dose 10 mg/kg, route intravenous.
A short description of series [19]: Volume of distribution in mouse at 10 mg/kg, iv. Details: dose 10 mg/kg, route intravenous. The following applies: in vivo, read-out: Vdss. The format is ADME, organism-based.
A short description of series [20]: Plasma clearance in mouse at 10 mg/kg, iv. The class given is ADME, organism-based. Details: dose 10 mg/kg, route intravenous.
A short description of series [21]: Half life in mouse at 10 mg/kg, po. The class given is ADME, organism-based. The following applies: in vivo. Details: dose 10 mg/kg, route oral.
The subject of another series is Mus musculus. Put plainly: AUC in mouse at 10 mg/kg, po. Details: dose 10 mg/kg, route oral. The class given is ADME, organism-based, Plasma. The following applies: in vivo.
A short description of series [22]: Oral bioavailability in mouse at 10 mg/kg, po. To be noted: in vivo. The format is ADME, organism-based.
Series [23] concerns the target 11-beta-hydroxysteroid dehydrogenase 1 (Mus musculus) (UniProt P50172). In words: Inhibition of mouse 11beta-HSD1 in DIO mouse liver at 30 mg/kg, po after 1 hr. The class given is organism-based. Details: dose 30 mg/kg.
The target is the same in series [24]. Put plainly: Inhibition of mouse 11beta-HSD1 in DIO mouse liver at 30 mg/kg, po after 7 hrs. The format is organism-based. Details: dose 30 mg/kg.
The target is the same in series [25]. In words: Inhibition of mouse 11beta-HSD1 in DIO mouse adipose tissue at 30 mg/kg, po after 1 hr. The format is organism-based. Details: dose 30 mg/kg.
Series [26] shares this target. In words: Inhibition of mouse 11beta-HSD1 in DIO mouse adipose tissue at 30 mg/kg, po after 7 hrs. The format is organism-based. Details: dose 30 mg/kg.

T2 sequence (P28845 whole entry): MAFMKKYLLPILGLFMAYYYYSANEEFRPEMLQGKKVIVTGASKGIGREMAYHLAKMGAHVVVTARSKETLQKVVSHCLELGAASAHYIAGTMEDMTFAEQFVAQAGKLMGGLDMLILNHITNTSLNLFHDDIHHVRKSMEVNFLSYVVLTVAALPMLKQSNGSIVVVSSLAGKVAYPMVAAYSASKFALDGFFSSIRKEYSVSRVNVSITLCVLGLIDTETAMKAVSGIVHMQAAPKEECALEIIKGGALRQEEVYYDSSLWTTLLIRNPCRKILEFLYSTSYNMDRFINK
11-beta-hydroxysteroid dehydrogenase 1 (Mus musculus), sequence (P50172 whole entry, looked up): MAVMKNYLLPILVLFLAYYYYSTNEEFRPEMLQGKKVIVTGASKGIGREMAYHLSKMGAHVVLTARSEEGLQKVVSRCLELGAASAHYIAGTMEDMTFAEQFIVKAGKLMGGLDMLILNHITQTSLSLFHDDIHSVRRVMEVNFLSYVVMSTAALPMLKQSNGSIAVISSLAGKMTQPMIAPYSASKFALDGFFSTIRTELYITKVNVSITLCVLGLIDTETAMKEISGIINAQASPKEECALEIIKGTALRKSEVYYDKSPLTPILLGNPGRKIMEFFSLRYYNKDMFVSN
11-beta-hydroxysteroid dehydrogenase 1 (Mus musculus, UniProt P50172), sequence (P50172 whole entry): as the sequence (P50172 whole entry, looked up) above
11-beta-hydroxysteroid dehydrogenase 1 (Rattus norvegicus, UniProt P16232), sequence (P16232 whole entry): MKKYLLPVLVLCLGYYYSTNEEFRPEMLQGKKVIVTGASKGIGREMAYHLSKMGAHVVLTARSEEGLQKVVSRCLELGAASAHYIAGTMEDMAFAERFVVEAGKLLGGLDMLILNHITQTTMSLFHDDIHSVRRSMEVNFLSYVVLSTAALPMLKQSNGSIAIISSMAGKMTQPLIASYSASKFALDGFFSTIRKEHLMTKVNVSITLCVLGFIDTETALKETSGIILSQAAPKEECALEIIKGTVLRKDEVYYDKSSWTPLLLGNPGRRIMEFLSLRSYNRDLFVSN

As for `O=C(CN1CCN(c2ccc(C(F)(F)F)cn2)CC1)N[C@H]1C2CC3CC1C[C@](O)(C3)C2`, the Ki in series [1] stood at 6 nM; in series [9] it was 8 nM; in [10], 34 nM. Also, the IC50 in series [2] is above 100 µM; in [11], 130 nM; in series [14], above 100 µM; in series [15], above 100 µM. For the same compound, the CLint scaled at 1 µM in [3] was below 50 mL/min/kg; in series [12] it was 16.7 mL/min/kg; in series [13] it was 683 mL/min/kg. For the same compound, the half-life in series [4] is 84 min; in [7], 78 min. Moreover, in series [5], the Vd was determined as 2.2 L/kg. The compound also gave a clearance in series [6] of 23.3 mL/min/kg. The AUC in the series on Rattus norvegicus is recorded as 2.4 ug/hr.ml. In [8], this compound showed a bioavailability of 65%.

For the compound `CC(C(=O)N[C@H]1C2CC3CC1C[C@](O)(C3)C2)N1CCN(c2ccc(C(F)(F)F)cn2)CC1` (mixture of isomers), the inhibition in [16] was 37%; in series [17], 25%; in series [23], 36%; in series [24], 9%; in [25] it was 51%; in series [26], 16%. Moreover, the Ki was 4 nM in [1], 5 nM in series [9] and 15 nM in series [10]. For the same compound, the IC50 in series [2] is above 100 µM; in series [11] it was 29 nM; in series [14], above 100 µM; in series [15], above 100 µM. Also, the CLint scaled at 1 µM in series [3] was 83.3 mL/min/kg; in series [12], 50 mL/min/kg; in series [13], 117 mL/min/kg. Moreover, the half-life in series [4] was 60 min; in [7] it was 96 min; in [18] it was 24 min; in [21] it was 60 min. The Vd was 1 L/kg in series [5] and 1.6 L/kg in series [19]. Moreover, the clearance is 33.3 mL/min/kg in [6] and 55 mL/min/kg in [20]. Further, the AUC in the series with Rattus norvegicus was found to be 1 ug/hr.ml; in the series with Mus musculus, 1.9 ug/hr.ml. The figures for the bioavailability in [8] and in series [22] were 37% and 65%, respectively.

These data come from ChEMBL document CHEMBL1139224, “Discovery and metabolic stabilization of potent and selective 2-amino-N-(adamant-2-yl) acetamide 11beta-hydroxysteroid dehydrogenase type 1 inhibitors” (J Med Chem, 2007).
